# In patent US8735414B2 (priority 2009, dated 2014):
# Columns and labels:
# [1] = test system: bicistronic HCV replicon (replicon RNA, GenBank Accession No. AJ242654); test: HCV Replicon Assay; type: cell-based; conditions: Hepatitis C virus, 72 h, read-out: Replicon IC50
SMILES,IC50 [1],melting point
"CCc1cc2c(cc1F)c(C(N)=O)c(-c1ccc(S(=O)(=O)N[C@@H](C)C(F)(F)F)cn1)n2-c1ccncc1 [compound 1045, 6-ethyl-5-fluoro-1-(pyridin-4-yl)-2-(5-{[(2S)-1,1,1-trifluoropropan-2-yl]sulfamoyl}pyridin-2-yl)-1H-indole-3-carboxamide]",< 0.5 µM,219 to 224 °C
"C[C@H](NS(=O)(=O)c1ccc(-c2c(C(N)=O)c3c(F)cc(OC(F)F)cc3n2CC2CC2)nc1)C(F)(F)F [compound 840, 1-(cyclopropylmethyl)-6-(difluoromethoxy)-4-fluoro-2-(5-{[(2S)-1,1,1-trifluoropropan-2-yl]sulfamoyl}pyridin-2-yl)-1H-indole-3-carboxamide]",< 0.5 µM,211 to 212 °C
"Cc1cc2c(cc1F)c(C(N)=O)c(-c1ccc(S(=O)(=O)N[C@@H](C)C(F)(F)F)cn1)n2-c1cccnn1 [compound 912, 5-fluoro-6-methyl-1-(pyridazin-3-yl)-2-(5-{[(2S)-1,1,1-trifluoropropan-2-yl]sulfamoyl}pyridin-2-yl)-1H-indole-3-carboxamide]",2 to 5 µM,176 to 181 °C
"CCn1c(-c2ccc(NS(=O)(=O)C3CC3)cn2)c(C#N)c2ccc(OC(C)C)cc21 [compound 285, N-{6-[3-cyano-1-ethyl-6-(propan-2-yloxy)-1H-indol-2-yl]pyridin-3-yl}cyclopropanesulfonamide]",0.5 to 2 µM,180 to 185 °C
"N#Cc1c(-c2ccc(S(=O)(=O)NC(CF)CF)cn2)n(-c2ccccn2)c2cc(C3CC3)ccc12 [compound 501, 6-[3-cyano-6-cyclopropyl-1-(pyridin-2-yl)-1H-indol-2-yl]-N-(1,3-difluoropropan-2-yl)pyridine-3-sulfonamide]",< 0.5 µM,210 to 213 °C
"CC(C)(C)NS(=O)(=O)c1ccc(-c2c(C#N)c3cc(F)c(Br)cc3n2-c2ncccn2)nc1 [compound 938, 6-[6-bromo-3-cyano-5-fluoro-1-(pyrimidin-2-yl)-1H-indol-2-yl]-N-tert-butylpyridine-3-sulfonamide]",< 0.5 µM,266 to 268 °C
"N#Cc1c(-c2ccc(S(=O)(=O)NC(CF)CF)cn2)n(C2CCCC2)c2ccc(F)cc12 [compound 38, 6-(3-cyano-1-cyclopentyl-5-fluoro-1H-indol-2-yl)-N-(1,3-difluoropropan-2-yl)pyridine-3-sulfonamide]",< 0.5 µM,171 to 172 °C
"C[C@@H](NS(=O)(=O)c1cnc(-c2c(C#N)c3ccc(OC(F)F)cc3n2C2CCC2)nc1)C(F)(F)F [compound 184, 2-[3-cyano-1-cyclobutyl-6-(difluoromethoxy)-1H-indol-2-yl]-N-[(2R)-1,1,1-trifluoropropan-2-yl]pyrimidine-5-sulfonamide]",< 0.5 µM,112 to 114 °C
"Cc1c(F)cc2c(c1F)c(C#N)c(-c1ccc(S(=O)(=O)NC(CF)CF)cn1)n2C1CCC1 [compound 556, 6-(3-cyano-1-cyclobutyl-4,6-difluoro-5-methyl-1H-indol-2-yl)-N-(1,3-difluoropropan-2-yl)pyridine-3-sulfonamide]",< 0.5 µM,207 to 212 °C
"CC(C)(C)S(=O)(=O)Nc1ccc(-c2c(C(N)=O)c3c(F)cc(C4CC4)cc3n2-c2ccc(F)cc2)cn1 [compound 1105, 2-{6-[(tert-butylsulfonyl)amino]pyridin-3-yl}-6-cyclopropyl-4-fluoro-1-(4-fluorophenyl)-1H-indole-3-carboxamide]",< 0.5 µM,290 to 295 °C
"COc1ccc2c(C#N)c(-c3ncc(S(=O)(=O)NC(C)C)cn3)n(C3CCC3)c2c1 [compound 172, 2-(3-cyano-1-cyclobutyl-6-methoxy-1H-indol-2-yl)-N-(propan-2-yl)pyrimidine-5-sulfonamide]",< 0.5 µM,200 to 202 °C
"N#Cc1c(-c2ccc(S(=O)(=O)NC(CF)CF)cn2)n(CC2CC2)c2ccc(F)cc12 [compound 58, 6-[3-cyano-1-(cyclopropylmethyl)-5-fluoro-1H-indol-2-yl]-N-(1,3-difluoropropan-2-yl)pyridine-3-sulfonamide]",< 0.5 µM,162 to 164 °C
"CC(C)n1c(-c2ncc(S(=O)(=O)N[C@@H](C)C(F)(F)F)cn2)c(C#N)c2cc(F)ccc21 [compound 546, 2-[3-cyano-5-fluoro-1-(propan-2-yl)-1H-indol-2-yl]-N-[(2S)-1,1,1-trifluoropropan-2-yl]pyrimidine-5-sulfonamide]",0.5 to 2 µM,172 to 176 °C
"CCc1ccc2c(C#N)c(-c3ccc(S(=O)(=O)NC(C)(C)C(F)(F)F)cn3)n(C3CCC3)c2c1 [compound 481, 6-(3-cyano-1-cyclobutyl-6-ethyl-1H-indol-2-yl)-N-(1,1,1-trifluoro-2-methylpropan-2-yl)pyridine-3-sulfonamide]",< 0.5 µM,160 to 165 °C
"N#Cc1c(-c2ncc(S(=O)(=O)NC(CF)CF)cn2)n(C2CCC2)c2cc(CF)ccc12 [compound 361, 2-[3-cyano-1-cyclobutyl-6-(fluoromethyl)-1H-indol-2-yl]-N-(1,3-difluoropropan-2-yl)pyrimidine-5-sulfonamide]",< 0.5 µM,226 to 232 °C
"N#Cc1ccc2c(C#N)c(-c3ccc(S(=O)(=O)NC(CF)CF)cn3)n(CC3CC3)c2c1 [compound 347, 6-[3,6-dicyano-1-(cyclopropylmethyl)-1H-indol-2-yl]-N-(1,3-difluoropropan-2-yl)pyridine-3-sulfonamide]",0.5 to 2 µM,199 to 201 °C
"CC(C)NS(=O)(=O)c1ccc(-c2c(C#N)c3ccc(C#N)cc3n2CC2CC2)nc1 [compound 348, 6-[3,6-dicyano-1-(cyclopropylmethyl)-1H-indol-2-yl]-N-(propan-2-yl)pyridine-3-sulfonamide]",0.5 to 2 µM,190 to 192 °C
"Cc1ccc2c(C#N)c(-c3ccc(S(=O)(=O)NC(CF)CF)cn3)n(C3CCC3)c2c1F [compound 422, 6-(3-cyano-1-cyclobutyl-7-fluoro-6-methyl-1H-indol-2-yl)-N-(1,3-difluoropropan-2-yl)pyridine-3-sulfonamide]",< 0.5 µM,186 to 201 °C
"CCc1cc2c(cc1F)c(C#N)c(-c1ccc(S(=O)(=O)N[C@H](C)C(F)(F)F)cn1)n2C1CCC1 [compound 641, 6-(3-cyano-1-cyclobutyl-6-ethyl-5-fluoro-1H-indol-2-yl)-N-[(2R)-1,1,1-trifluoropropan-2-yl]pyridine-3-sulfonamide]",< 0.5 µM,199 to 199.5 °C
"CC(C)(NS(=O)(=O)c1ccc(-c2c(C#N)c3cc(F)c(C4CC4)cc3n2C2CCCC2)nc1)C(F)(F)F [compound 831, 6-(3-cyano-1-cyclopentyl-6-cyclopropyl-5-fluoro-1H-indol-2-yl)-N-(1,1,1-trifluoro-2-methylpropan-2-yl)pyridine-3-sulfonamide]",< 0.5 µM,183 to 185 °C
"CC(C)n1c(-c2ccc(S(=O)(=O)NC(CF)CF)cn2)c(C#N)c2ccc(OC(F)F)cc21 [compound 36, 6-[3-cyano-6-(difluoromethoxy)-1-(propan-2-yl)-1H-indol-2-yl]-N-(1,3-difluoropropan-2-yl)pyridine-3-sulfonamide]",< 0.5 µM,142 to 145 °C
